Numbered stars: 1 amine (or outer) side, 2 acyl side, 3 side chain; on linkers, the order of the positions; unused ones are H or OH. Bridge positions count the residues as written; N and C are the ends. Square brackets hold non-standard residues; d marks the D form. Peptide text beside a SMILES is read from it. * marks the point of attachment. X1 = O=C([C@@H]1C[C@@H](SCc2cccc(C[*:3])c2)CN1[*:1])[*:2]; X2 = C=CCS[C@@H]1C[C@@H](C(=O)[*:2])N([*:1])C1; Ac3c = NC1(C(=O)O)CC1; Allyl = C=CC*
Columns and labels:
[1] = HeLa cell lysate stability assay; conditions: for primary degradation products in HeLa cell lysate: after 24 hours, mass spectrometry; for remaining at 4 h / half-life: human
CD thermal melts = type: physicochemical; conditions: CD thermal melt, Trp-Trp exciton coupling band at 228 nm, aqueous solution
in vitro = conditions: human, cells or culture medium

SMILES | remaining at 4 h [1] [%] | T50 (temperature at which the peptide retains 50% structure) (CD thermal melts) [°C] | half-life [1] [h] | primary degradation products in HeLa cell lysate [1] | remaining at 2 h (in vitro) [%]
C=CCSC[C@H](NC(=O)[C@@H](Cc1ccc(O)cc1)NC(=O)[C@H](Cc1c[nH]c2ccccc12)NC(=O)[C@@H](NC(=O)[C@@H](N)CCCCN)[C@@H](C)O)C(=O)N[C@H](C(=O)N1CCC[C@@H]1C(=O)NC1(C(=O)NCC(=O)N2C[C@H](SCC=C)C[C@H]2C(=O)NCC(=O)N[C@@H](Cc2c[nH]c3ccccc23)C(=O)N[C@H](C(=O)N[C@@H](CCC(=O)O)C(=O)O)[C@@H](C)O)CC1)[C@@H](C)O [4MP-a] (H-KTW[dY]C(Allyl)T[dP][Ac3c]G[X2]GWTE-OH; N-terminus and C-terminus assumed) | ~22 | 50.8 |  | intact except for the two N-terminal amino acids | 
C[C@H](NC(=O)[C@@H]1CCCN1C(=O)[C@H](CC(N)=O)NC(=O)[C@H](Cc1c[nH]c2ccccc12)NC(=O)[C@@H](NC(=O)[C@@H](N)CCCCN)[C@@H](C)O)C(=O)N[C@H](C(=O)NCC(=O)N[C@@H](CCCCN)C(=O)N[C@@H](Cc1c[nH]c2ccccc12)C(=O)N[C@H](C(=O)N[C@@H](CCC(=O)O)C(=O)O)[C@@H](C)O)[C@@H](C)O [HP7, reference compound] (H-KTWNPATGKWTE-OH; N-terminus and C-terminus assumed) |  | 58.7 |  |  | ~0
CC(=O)N[C@H](C(=O)N[C@@H](Cc1c[nH]c2ccccc12)C(=O)N[C@@H](CC(N)=O)C(=O)N1CCC[C@H]1C(=O)N[C@@H](C)C(=O)N[C@H](C(=O)NCC(=O)N[C@@H](CCCCN)C(=O)N[C@@H](Cc1c[nH]c2ccccc12)C(=O)N[C@H](C(N)=O)[C@@H](C)O)[C@@H](C)O)[C@@H](C)O [ΔHP7] (Ac-TWNPATGKWT-NH2; N-terminus and C-terminus assumed) |  |  |  |  | ~19

Further lines, with some results ahead:

remaining at 4 h [1] [%] | T50 (temperature at which the peptide retains 50% structure) (CD thermal melts) [°C] | half-life [1] [h] | SMILES | primary degradation products in HeLa cell lysate [1] | remaining at 2 h (in vitro) [%]
~7 | 58.5 |  | C[C@@H](O)[C@H](NC(=O)[C@H](Cc1c[nH]c2ccccc12)NC(=O)CNC(=O)[C@@H]1C[C@@H]2CN1C(=O)CNC(=O)C1(CC1)NC(=O)[C@H]1CCCN1C(=O)[C@H]([C@@H](C)O)NC(=O)[C@@H](NC(=O)[C@@H](Cc1ccc(O)cc1)NC(=O)[C@H](Cc1c[nH]c3ccccc13)NC(=O)[C@@H](NC(=O)[C@@H](N)CCCCN)[C@@H](C)O)CSCc1cccc(c1)CS2)C(=O)N[C@@H](CCC(=O)O)C(=O)O [4MP-m] (H-KTW[dY]CT[dP][Ac3c]G[X1]GWTE-OH; thioether 5-10; N-terminus and C-terminus assumed) | intact except for the two N-terminal amino acids | 
 |  | 30 | C=CCSC[C@H](NC(=O)[C@@H](Cc1ccc(O)cc1)NC(=O)[C@H](Cc1c[nH]c2ccccc12)NC(=O)[C@@H](NC(C)=O)[C@@H](C)O)C(=O)N[C@H](C(=O)N1CCC[C@@H]1C(=O)NC1(C(=O)NCC(=O)N2C[C@H](SCC=C)C[C@H]2C(=O)NCC(=O)N[C@@H](Cc2c[nH]c3ccccc23)C(=O)N[C@H](C(N)=O)[C@@H](C)O)CC1)[C@@H](C)O [Δ4MP-a] (Ac-TW[dY]C(Allyl)T[dP][Ac3c]G[X2]GWT-NH2; N-terminus and C-terminus assumed) |  | 
 |  | 21 | CC(=O)N[C@H](C(=O)N[C@@H](Cc1c[nH]c2ccccc12)C(=O)N[C@H](Cc1ccc(O)cc1)C(=O)N[C@H]1CSCc2cccc(c2)CS[C@@H]2C[C@@H](C(=O)NCC(=O)N[C@@H](Cc3c[nH]c4ccccc34)C(=O)N[C@H](C(N)=O)[C@@H](C)O)N(C2)C(=O)CNC(=O)C2(CC2)NC(=O)[C@H]2CCCN2C(=O)[C@H]([C@@H](C)O)NC1=O)[C@@H](C)O [Δ4MP-m] (Ac-TW[dY]CT[dP][Ac3c]G[X1]GWT-NH2; thioether 4-9) |  | 

Reference: article PMC9250296 (Journal of the American Chemical Society, 2021)
